Patent publication US7445790B2, “External preparations for skin” (Shiseido Company, Ltd., priority 2002, dated 2008)

How the values were obtained:
[1] = IOB value of the oil component; format: physicochemical; details: obtained oil component
[2] = Solubility of a slightly soluble triazine-type ultraviolet absorbent in oil components at 0° C.; format: physicochemical; details: concentration (mass percentage) in a saturated solution at 0° C. of 2,4-bis{[4-(2-ethylhexyloxy)-2-hydroxy]phenyl}-6-(4-methoxyphenyl)1,3,5-triazine in the oil component
Excerpt: (§1) For the slightly soluble ultraviolet absorbent, a triazine-type ultraviolet absorbent 2,4-bis{[4-(2-ethylhexyloxy)-2-hydroxy]phenyl}-6-(4-methoxyphenyl)1,3,5-triazine was used.
This oil component is a mixture of alkyl benzoates having 12-15 carbon atoms.
as §1

Row | IOB value [1] | Solubility ([2]; Table 1-4) [%] | Solubility ([2]; Table 2-1) [%] | Structure (SMILES)
1 | 0.26 |  |  | CCCCC(CC)COC(=O)c1ccccc1 (centres unmarked) [2-ethylhexyl benzoate]
2 | 0.26 |  |  | CC(CCOC(=O)c1ccccc1)CC(C)(C)C (centres unmarked) [3,5,5-trimethylhexyl benzoate]
3 | 0.23 |  |  | CC(C)CCCC(C)CCOC(=O)c1ccccc1 (centres unmarked) [3,7-dimethyloctyl benzoate]
4 |  | 0 | 0 | C[Si]1(C)O[Si](C)(C)O[Si](C)(C)O[Si](C)(C)O[Si](C)(C)O1 [Decamethyl cyclopentane siloxane]
